Measurements published in patent EP0469547B1, “4-Amino-delta4,6-steroids and their use as 5alpha-reductase inhibitors” (MERRELL PHARMACEUTICALS INC., priority 1990, dated 1992).

Biological target: T1, steroid 5α-reductase (Homo sapiens, UniProt P31213)
T1 construct: Microsomal preparations of the steroid 5α-reductase enzyme (protein) were obtained from human prostate tissue; from tissue; host or cells: human prostate tissue (microsomal preparation)
T1 sequence (P31213 1-254): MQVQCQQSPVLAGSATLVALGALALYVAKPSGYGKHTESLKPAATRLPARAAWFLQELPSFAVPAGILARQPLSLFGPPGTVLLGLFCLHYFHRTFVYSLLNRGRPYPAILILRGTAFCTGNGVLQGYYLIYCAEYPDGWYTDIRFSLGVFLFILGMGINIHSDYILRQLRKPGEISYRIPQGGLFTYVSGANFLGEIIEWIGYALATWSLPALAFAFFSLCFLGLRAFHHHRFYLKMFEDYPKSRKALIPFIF
Assay: 5α-reductase inhibition test with human prostate microsomal preparations (conversion of 1,2-³H-testosterone to dihydrotestosterone, HPLC)
Format: biochemical
Experimental: Microsomal preparations of the steroid 5α-reductase enzyme (protein) were obtained from human prostate tissue and stored in aliquots. Protein concentration was determined prior to use of the samples. In the method itself, individual assays for 5α-reductase activity contained 0.1M phosphate citrate buffer, pH 5.6, 1mM EDTA, 7 to 22 µg of microsomal protein, 1mM NADPH, 5 mM glucose-6-phosphate, 1 IU/ml glucose-6-phosphate dehydrogenase, 1,2-³H-testosterone, and test compound, dissolved in dimethyl sulfoxide and then diluted in phosphate-citrate buffer to yield a final assay concentration of 0.1% (v/v) dimethyl sulfoxide. The same buffer and the same quantity of dimethyl sulfoxide, without any test compound is used for the control assays. The total assay volume was 100 µl and assays were performed in duplicate. The reaction was initiated by the addition of the testosterone, and incubated for 30 minutes at 25°C. The assay is linear with time to 30 minutes.
Depending on the nature of the inhibition, testosterone concentration was typically varied from 0.15 µM (approximately 0.5 Km) to 10 Km with radioactive label constant at 0.15 µCi per assay. The amount of test compound added was varied to provide final concentrations of 1 nM to 100 µM. The reaction was quenched by the addition of 50 volumes of chloroform:methanol (2:1). The steroids were then extracted and separated by high pressure liquid chromatography and the amounts of testosterone and dihydrotestosterone present were determined to determine the percent conversion of testosterone to dihydrotestosterone and to calculate the 5α-reductase activity. The activity of the test compound was then expressed as the IC₅₀, or the concentration of test compound that produced a 50% inhibition of the testosterone conversion. When compounds of the present invention were tested in this way, the following results were observed: […]

SMILES	IC50 [nM]
CC(C)N(C(=O)[C@H]1CC[C@H]2[C@@H]3C=CC4=C(N)C(=O)CC[C@]4(C)[C@H]3CC[C@]12C)C(C)C [4-Amino-N,N-bis(1-methylethyl)-3-oxoandrosta-4,6-diene-17β-carboxamide]	16
CC(C)(C)NC(=O)[C@H]1CC[C@H]2[C@@H]3C=CC4=C(N)C(=O)CC[C@]4(C)[C@H]3CC[C@]12C [4-Amino-N-(1,1-dimethylethyl)-3-oxoandrosta-4,6-diene-17β-carboxamide]	8
CC(=O)[C@H]1CC[C@H]2[C@@H]3C=CC4=C(N)C(=O)CC[C@]4(C)[C@H]3CC[C@]12C [4-Aminopregna-4,6-diene-3,20-dione]	25
